# Measurements as given in patent US10253002B2, “Compounds and methods of treating infections” (Neoculi Pty Ltd., priority 2013, dated 2019).
# Like-named read-outs stand apart in the source and are kept apart here.
# Tested on: MRSA
# Test: Broth microdilution MIC, Example 7 (NCL812 and analogues)
# Assay type: cell-based, Staphylococcus aureus
# How it was run: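 CLSI broth microdilution against two MRSA and two VRE strains, tested in duplicate with a third run if results differed by more than one two-fold dilution.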
smiles,measurement,setting,value
CC1(C)S[C@@H]2[C@H](NC(=O)[C@H](N)c3ccccc3)C(=O)N2[C@H]1C(=O)O [Ampicillin],MIC,"MRSA 610, Phase I, 2nd",128 µg/mL
same,MIC,"MRSA 713, Phase II, 1st",128 µg/mL
same,MIC,"MRSA 713, Phase II, 2nd",128 µg/mL
same,MIC,"MRSA 778, Phase II, 1st",128 µg/mL
same,MIC,"MRSA 778, Phase II, 2nd",128 µg/mL
same,MIC,"MRSA 823, Phase II, 1st",128 µg/mL
same,MIC,"MRSA 823, Phase II, 2nd",128 µg/mL
same,MIC,"MRSA 844, Phase I, 1st",128 µg/mL
same,MIC,"MRSA 844, Phase I, 2nd",128 µg/mL
same,MIC,"Staphylococcus aureus, MRSA, 24 h, read-out: MIC (μg/ml) at 24 hours, MRSA 1, isolate MRSA 1, 24 hours, 1st and 2nd replicate rows",> 128 µg/mL
same,MIC,"Staphylococcus aureus, MRSA, 24 h, read-out: MIC (μg/ml) at 24 hours, MRSA 2, isolate MRSA 2, 24 hours, 1st and 2nd replicate rows",16 µg/mL
same,MIC,"Staphylococcus aureus, MRSA, MRSA 516, Phase I, 1st, read-out: MIC",32 µg/mL
same,MIC,"Staphylococcus aureus, MRSA, MRSA 516, Phase I, 2nd, read-out: MIC",32 µg/mL
same,MIC,"Staphylococcus aureus, MRSA, MRSA 516, Phase II, 1st, read-out: MIC",32 µg/mL
same,MIC,"Staphylococcus aureus, MRSA, MRSA 516, Phase II, 2nd, read-out: MIC",16 µg/mL
same,MIC,"Staphylococcus aureus, MRSA, MRSA 570, Phase I, 1st, read-out: MIC",> 128 µg/mL
same,MIC,"Staphylococcus aureus, MRSA, MRSA 570, Phase I, 2nd, read-out: MIC",> 128 µg/mL
same,MIC,"Staphylococcus aureus, MRSA, MRSA 570, Phase II, 1st, read-out: MIC",> 128 µg/mL
same,MIC,"Staphylococcus aureus, MRSA, MRSA 570, Phase II, 2nd, read-out: MIC",> 128 µg/mL
same,MIC,"Staphylococcus aureus, MRSA, MRSA 580, Phase I, 1st, read-out: MIC",> 128 µg/mL
same,MIC,"Staphylococcus aureus, MRSA, MRSA 580, Phase I, 2nd, read-out: MIC",> 128 µg/mL
same,MIC,"Staphylococcus aureus, MRSA, MRSA 580, Phase II, 1st, read-out: MIC",> 128 µg/mL
same,MIC,"Staphylococcus aureus, MRSA, MRSA 580, Phase II, 2nd, read-out: MIC",> 128 µg/mL
same,MIC,"Staphylococcus aureus, MRSA, MRSA 606, Phase I, 1st, read-out: MIC",32 µg/mL
same,MIC,"Staphylococcus aureus, MRSA, MRSA 606, Phase I, 2nd, read-out: MIC",32 µg/mL
same,MIC,"Staphylococcus aureus, MRSA, MRSA 606, Phase II, 1st, read-out: MIC",32 µg/mL
same,MIC,"Staphylococcus aureus, MRSA, MRSA 606, Phase II, 2nd, read-out: MIC",32 µg/mL
same,MIC,"Staphylococcus aureus, MRSA, MRSA 610, Phase II, 1st, read-out: MIC",32 µg/mL
same,MIC,"Staphylococcus aureus, MRSA, MRSA 610, Phase II, 2nd, read-out: MIC",32 µg/mL
same,MIC,"Staphylococcus aureus, MRSA, MRSA 616, Phase I, 1st, read-out: MIC",64 µg/mL
same,MIC,"Staphylococcus aureus, MRSA, MRSA 616, Phase I, 2nd, read-out: MIC",64 µg/mL
same,MIC,"Staphylococcus aureus, MRSA, MRSA 616, Phase II, 1st, read-out: MIC",64 µg/mL
same,MIC,"Staphylococcus aureus, MRSA, MRSA 616, Phase II, 2nd, read-out: MIC",64 µg/mL
same,MIC,"Staphylococcus aureus, MRSA, MRSA 622, Phase I, 1st, read-out: MIC",64 µg/mL
same,MIC,"Staphylococcus aureus, MRSA, MRSA 622, Phase I, 2nd, read-out: MIC",64 µg/mL
same,MIC,"Staphylococcus aureus, MRSA, MRSA 622, Phase II, 1st, read-out: MIC",32 µg/mL
same,MIC,"Staphylococcus aureus, MRSA, MRSA 622, Phase II, 2nd, read-out: MIC",32 µg/mL
same,MIC,"Staphylococcus aureus, MRSA, MRSA 698, Phase I, 1st, read-out: MIC",64 µg/mL
same,MIC,"Staphylococcus aureus, MRSA, MRSA 698, Phase I, 2nd, read-out: MIC",64 µg/mL
same,MIC,"Staphylococcus aureus, MRSA, MRSA 698, Phase II, 1st, read-out: MIC",8 µg/mL
same,MIC,"Staphylococcus aureus, MRSA, MRSA 698, Phase II, 2nd, read-out: MIC",8 µg/mL
same,MIC,"Staphylococcus aureus, MRSA, MRSA 713, Phase I, 1st, read-out: MIC",> 128 µg/mL
same,MIC,"Staphylococcus aureus, MRSA, MRSA 713, Phase I, 2nd, read-out: MIC",> 128 µg/mL
same,MIC,"Staphylococcus aureus, MRSA, MRSA 718, Phase I, 1st, read-out: MIC",> 128 µg/mL
same,MIC,"Staphylococcus aureus, MRSA, MRSA 718, Phase I, 2nd, read-out: MIC",> 128 µg/mL
same,MIC,"Staphylococcus aureus, MRSA, MRSA 718, Phase II, 1st, read-out: MIC",64 µg/mL
same,MIC,"Staphylococcus aureus, MRSA, MRSA 718, Phase II, 2nd, read-out: MIC",64 µg/mL
same,MIC,"Staphylococcus aureus, MRSA, MRSA 728, Phase I, 1st, read-out: MIC",64 µg/mL
same,MIC,"Staphylococcus aureus, MRSA, MRSA 728, Phase I, 2nd, read-out: MIC",64 µg/mL
same,MIC,"Staphylococcus aureus, MRSA, MRSA 728, Phase II, 1st, read-out: MIC",32 µg/mL
same,MIC,"Staphylococcus aureus, MRSA, MRSA 728, Phase II, 2nd, read-out: MIC",32 µg/mL
same,MIC,"Staphylococcus aureus, MRSA, MRSA 734, Phase I, 1st, read-out: MIC",> 128 µg/mL
same,MIC,"Staphylococcus aureus, MRSA, MRSA 734, Phase I, 2nd, read-out: MIC",> 128 µg/mL
same,MIC,"Staphylococcus aureus, MRSA, MRSA 734, Phase II, 1st, read-out: MIC",64 µg/mL
same,MIC,"Staphylococcus aureus, MRSA, MRSA 734, Phase II, 2nd, read-out: MIC",64 µg/mL
same,MIC,"Staphylococcus aureus, MRSA, MRSA 741, Phase I, 1st, read-out: MIC",8 µg/mL
same,MIC,"Staphylococcus aureus, MRSA, MRSA 741, Phase I, 2nd, read-out: MIC",8 µg/mL
same,MIC,"Staphylococcus aureus, MRSA, MRSA 741, Phase II, 1st, read-out: MIC",4 µg/mL
